Here are results for one compound from US6956059B2, “Anti-inflammatory and immunomodulatory amino acid derivatives, their preparation and use” (Croda International, plc, priority 2001, dated 2005).

The test system of this data set is blood-brain barrier. Nature of the data set: transport across the blood-brain barrier (methodology of Dehouck et al); cytotoxicity observation. Type of data set: cell-based. As to conditions: used at the concentration of 5 μm/l; blood-brain barrier transport experiments. How it is done: In accordance with the methodology described by Dehouck et al in J Cont Rel 81-91 (1992), experiments were performed to study the transport of the compound of Example 2 across the blood-brain barrier.

For `CCCCCCCC/C=C\CCCCCCCCCCCCCC(=O)NCCCC[C@H](NC(=O)CCCCCCCCCCCCC/C=C\CCCCCCCC)C(=O)OCC` [Example 2, Nα,Nε-di-(z-15-tetracosenoyl)-L-lysine ethyl ester], the cytotoxicity entry is reported as “not cytotoxic”.
